Test results as given in US11459375B2, “Cyclic peptides for the treatment of Graves' disease” (advanceCOR GmbH, priority 2017, dated 2022).
Peptide text beside a SMILES is read from it.

How the values were obtained:
[1] = tested on: Ad-TSHR-immunized mice; experiment: ventricular myocardial volumes from digitized cross-sectional LV areas; format: in vivo, BALB/c mice; conditions: 1 mg/kg IV 4-weekly, end of experiment
Protocol: In FIG. 7 the effect of the peptide therapy on heart rates at various times during the experiment (A), and on heart weights (B) and cardiac ventricular volumes (C) at the end of the experiment were evaluated in all animals. The measurements were carried out in Ad-TSHR-immunized mice treated by either 4-weekly injections with vehicle (0.9% NaCl, “Graves' no therapy”, n=25 mice), or administrations of 1 mg/kg body weight of peptide of the invention 836 (12 mice), or of peptide 829 (13 mice), or TSHR-Fc (18 mice). In addition, age-matched immunologically naïve unimmunized mice (“healthy”, 19 animals) were investigated. Data are represented as mean±SEM. […]
After euthanasia, dissection of the thyroid glands was performed under a stereomicroscope, as described before (22). […] Thyroid volumes (mm^3) were calculated from the sum of the areas of each section over the whole cutting region. Myocardial volumes (mm^3) were calculated in a similar way as described for thyroid glands from the sum of the areas of each section over whole cutting region (5 to 6 slides, depending on respective size of the hearts). […]

[2] = tested on: immunologically naïve mice; experiment: tolerability and immunogenicity study in immunologically naive mice; conditions: for clinical findings / tolerability: 1 mg/kg bw IV, monthly administrations for 6 months
Protocol: BALB/c mice were adapted for at least one week to start experiments at the age of 12 weeks. Animals were kept as described before. […] Peptides (either 1 mg/kg body weight or NaCl vehicle control) were given by IV injection into a tail vein of these naïve mice (n=5 per group), and then continued at 4-weekly intervals for 6 months, as described before for the therapeutic study in immunized mice. Serum samples were taken at identical intervals.
1) “3rd generation assay”: Antibodies against TSHR were detected by a commercially available 3rd generation enzyme immunoassay provided by RSR Limited, Avenue Park, Pentwyn, Cardiff, U.K., in which the of the human Graves patient-derived M22 monoclonal antibody and serum antibodies compete for binding sites on immobilized TSHR. […] The assay was performed using 30 μl 1:10 (PBS) diluted serum in at least double determination according to the manufacturer's instructions.

[3] = tested on: CHO cells expressing the human TSHR; experiment: capacity of serum anti-TSHR antibodies from treated mice to stimulate cAMP in test cells; parameters: species or system BALB/c mice; conditions: serum of in vivo treated Ad-TSHR-immunized mice, 1 mg/kg IV 4-weekly
Protocol: The measurements were carried out in Ad-TSHR-immunized mice treated by either 4-weekly injections with vehicle (0.9% NaCl, “Graves' no therapy”, n=25 mice), or administrations of 1 mg/kg body weight of peptide of the invention 836 (12 mice), or of peptide 829 (13 mice), or TSHR-Fc (18 mice), or of control peptide 835 (13 mice). In addition, age-matched immunologically naïve unimmunized mice (“healthy”, 19 animals) were investigated. Data are represented as mean±SEM. Differences between groups were tested by AVOVA followed by post hoc LSD testing.**p<0.005 compared to the TSHR-immunized group treated with only NaCl (“Graves' no therapy”). […]
Anti-TSHR autoantibody titers and potency of antibodies to stimulate TSHR-dependent cAMP levels in test cells were determined before start of immunisation (basal value), 56 days after first immunisation, 133 days after first immunisation, and 189 days after first immunisation, and at the end of experiment. […]
2) Thyroid stimulating antibodies in the serum of hyperthyroid mice were analysed by measuring cyclic adenosine monophosphate (cAMP) generation in Chinese hamster ovary (CHO) cells JP2626 expressing the human TSHR (kindly provided by Dr. Gilbert Vassart, Brussels, Belgium). […]

| Compound | ventricular myocardial volumes [1] | clinical findings / tolerability [2] | anti-TSHR antibody titers in naive mice ([2]; 1 mg/kg IV monthly, 6 month observation period) | naive mice with anti-TSHR antibody titers above cut-off limit ([2]; 1 mg/kg IV, after 3 administrations) | maximum TSHR-dependent cAMP levels induced in test cells by mouse serum [3] |
| --- | --- | --- | --- | --- | --- |
| CC[C@H](C)[C@@H]1NC(=O)[C@H](C(C)C)NC(=O)[C@H]([C@@H](C)O)NC(=O)[C@H](CC(C)C)NC(=O)[C@H](Cc2ccc(O)cc2)NC(=O)[C@H](CCCCN)NC(=O)[C@H](CC(N)=O)NC(=O)[C@H](CCCCN)NC(=O)[C@H](CC(N)=O)NC(=O)[C@H](CC(C)C)NC(=O)[C@H](Cc2ccc(O)cc2)NC(=O)[C@H](C(C)C)NC(=O)[C@H](C)NC(=O)[C@H](CC(=O)O)NC(=O)[C@H](CC(C)C)NC(=O)[C@H](CCCCN)NC(=O)[C@H]([C@@H](C)O)NC(=O)CNC(=O)[C@H](CC(N)=O)NC(=O)[C@H](Cc2ccccc2)NC(=O)[C@H](C)NC(=O)[C@H](Cc2ccc(O)cc2)NC(=O)CNC(=O)[C@H](CC(=O)O)NC1=O [peptide 836] (cyclo(GYAFNGTKLDAVYLNKNKYLTVID)) | significantly reduced ventricular myocardial volumes | no pathological clinical findings were observed | – | – | – |
| TSHR-Fc: fusion protein: first 289 amino acids of human TSH receptor (A-subunit), GGR linker and Fc portion of human IgG2 | significantly reduced ventricular myocardial volumes | developed clinical signs of allergy immediately after 4 administrations | significantly (p<0.001) higher than in cyclic peptide-treated or vehicle-treated control mice | 3 out of 6 | not affected |
| SPPCECHQEEDFRVTCKDIQRIPS [peptide 829] | – | – | – | – | not significantly different from controls |
